Legend:
Experiment in all cases: KINOMEscan
Format in all cases: binding
Settings in all cases: 2000 nM
MAP4K5 = MAP4K5 (Homo sapiens, UniProt Q9Y4K4)
EPHA7 = target: T1, EPHA7 (Homo sapiens, UniProt Q15375)
T1 construct: purchased DiscoveRx (KINOMEscan scanMAX panel)

YANK1 = target: T2, YANK1 (Homo sapiens, UniProt Q8WU08)
T2 construct: purchased KINOMEscan (DiscoveRx) panel service

TAOK2 = target: T3, TAOK2 (Homo sapiens, UniProt Q9UL54)
T3 construct: DNA label (for qPCR read-out); purchased DiscoveRx (KINOMEscan scanMAX panel, contract assay)

p38-alpha = target: T4, p38-alpha (Homo sapiens, UniProt Q16539)
T4 construct: purchased DiscoverX (KINOMEscan service)

AMPK-alpha2 = target: T5, AMPK-alpha2 (Homo sapiens, UniProt P54646)
T5 construct: DNA label (qPCR read-out); purchased KINOMEscan scanMAX panel (DiscoveRx)

MLK3 = target: T6, MLK3 (Homo sapiens, UniProt Q16584)
T6 construct: DNA label (qPCR read-out); purchased KINOMEscan scanMAX panel (DiscoveRx)

KIT(L576P) = target: T7, KIT(L576P) (Homo sapiens, UniProt P10721, L576P)
T7 construct: DNA label (for qPCR read-out); purchased DiscoveRx (KINOMEscan scanMAX panel)
T7 sequence (P10721 26-976 L576P): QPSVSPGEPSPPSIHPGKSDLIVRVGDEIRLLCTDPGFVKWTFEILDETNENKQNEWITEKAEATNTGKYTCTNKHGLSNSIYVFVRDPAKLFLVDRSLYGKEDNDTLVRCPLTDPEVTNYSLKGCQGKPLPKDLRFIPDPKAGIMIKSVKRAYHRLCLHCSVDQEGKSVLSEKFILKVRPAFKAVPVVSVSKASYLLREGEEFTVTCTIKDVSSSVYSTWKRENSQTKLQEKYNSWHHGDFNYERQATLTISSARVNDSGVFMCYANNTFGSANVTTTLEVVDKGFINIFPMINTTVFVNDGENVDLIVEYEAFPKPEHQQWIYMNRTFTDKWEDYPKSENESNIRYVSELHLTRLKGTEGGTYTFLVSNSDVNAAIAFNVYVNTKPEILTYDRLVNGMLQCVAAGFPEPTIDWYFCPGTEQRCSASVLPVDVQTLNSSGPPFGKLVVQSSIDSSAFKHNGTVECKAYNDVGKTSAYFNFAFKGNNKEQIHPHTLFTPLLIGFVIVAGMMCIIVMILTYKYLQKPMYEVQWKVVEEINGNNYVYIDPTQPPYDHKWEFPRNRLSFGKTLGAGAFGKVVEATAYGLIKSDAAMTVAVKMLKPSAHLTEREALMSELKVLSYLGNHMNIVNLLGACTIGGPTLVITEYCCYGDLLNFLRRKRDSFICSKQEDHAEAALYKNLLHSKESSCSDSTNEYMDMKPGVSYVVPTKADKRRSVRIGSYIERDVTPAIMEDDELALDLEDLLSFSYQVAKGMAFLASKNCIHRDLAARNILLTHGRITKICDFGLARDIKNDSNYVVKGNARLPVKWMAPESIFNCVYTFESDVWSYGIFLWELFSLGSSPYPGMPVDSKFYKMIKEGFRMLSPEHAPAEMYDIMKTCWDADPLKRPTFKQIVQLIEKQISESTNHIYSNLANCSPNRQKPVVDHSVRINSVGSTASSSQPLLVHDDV

MAP3K3 = MAP3K3 (Homo sapiens, UniProt Q99759)
KIT(V559D) = target: T8, KIT(V559D) (Homo sapiens, UniProt P10721, V559D)
T8 construct: DNA label (for qPCR read-out); purchased DiscoveRx (KINOMEscan scanMAX panel)
T8 sequence (P10721 26-976 V559D): as the sequence (P10721 26-976 L576P) above, with V534D, P551L counted along it

INSR = target: T9, INSR (Homo sapiens, UniProt P06213)
T9 construct: DNA label (qPCR read-out); purchased KINOMEscan (DiscoveRx) ScanMAX panel

SBK1 = target: T10, SBK1 (Homo sapiens, UniProt Q52WX2)
T10 construct: purchased DiscoveRx (KINOMEscan scanMAX panel)

DMPK = target: T11, DMPK (Homo sapiens, UniProt Q09013)
T11 construct: DNA label (qPCR read-out); purchased KINOMEscan (DiscoveRx) panel
T11 sequence (Q09013 whole entry): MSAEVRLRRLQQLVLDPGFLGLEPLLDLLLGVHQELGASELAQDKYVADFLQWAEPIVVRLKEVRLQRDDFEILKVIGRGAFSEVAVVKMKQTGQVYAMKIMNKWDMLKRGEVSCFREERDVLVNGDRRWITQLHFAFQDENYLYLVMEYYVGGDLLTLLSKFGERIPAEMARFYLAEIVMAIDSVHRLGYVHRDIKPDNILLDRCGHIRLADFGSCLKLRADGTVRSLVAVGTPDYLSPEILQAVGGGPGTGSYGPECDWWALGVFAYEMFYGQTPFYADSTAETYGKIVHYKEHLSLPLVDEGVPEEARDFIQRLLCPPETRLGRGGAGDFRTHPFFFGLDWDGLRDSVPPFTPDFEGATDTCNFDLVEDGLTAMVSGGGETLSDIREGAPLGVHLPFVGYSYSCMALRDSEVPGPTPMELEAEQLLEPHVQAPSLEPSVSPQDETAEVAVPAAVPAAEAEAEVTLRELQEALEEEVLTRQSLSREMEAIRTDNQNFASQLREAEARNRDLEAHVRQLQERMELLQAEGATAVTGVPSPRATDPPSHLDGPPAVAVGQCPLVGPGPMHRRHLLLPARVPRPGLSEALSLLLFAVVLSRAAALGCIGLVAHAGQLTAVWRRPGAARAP

HIPK1 = target: T12, HIPK1 (Homo sapiens, UniProt Q86Z02)
T12 construct: DNA label (for qPCR read-out); purchased DiscoveRx (KINOMEscan scanMAX panel, contract assay)

ERBB3 = target: T13, ERBB3 (Homo sapiens, UniProt P21860)
T13 construct: DNA label (qPCR read-out); purchased DiscoveRx (KINOMEscan ScanMAX panel)

BRSK2 = target: T14, BRSK2 (Homo sapiens, UniProt Q8IWQ3)
T14 construct: DNA label (for qPCR read-out); purchased KINOMEscan scanMAX panel (DiscoveRx)
T14 sequence (Q8IWQ3 whole entry): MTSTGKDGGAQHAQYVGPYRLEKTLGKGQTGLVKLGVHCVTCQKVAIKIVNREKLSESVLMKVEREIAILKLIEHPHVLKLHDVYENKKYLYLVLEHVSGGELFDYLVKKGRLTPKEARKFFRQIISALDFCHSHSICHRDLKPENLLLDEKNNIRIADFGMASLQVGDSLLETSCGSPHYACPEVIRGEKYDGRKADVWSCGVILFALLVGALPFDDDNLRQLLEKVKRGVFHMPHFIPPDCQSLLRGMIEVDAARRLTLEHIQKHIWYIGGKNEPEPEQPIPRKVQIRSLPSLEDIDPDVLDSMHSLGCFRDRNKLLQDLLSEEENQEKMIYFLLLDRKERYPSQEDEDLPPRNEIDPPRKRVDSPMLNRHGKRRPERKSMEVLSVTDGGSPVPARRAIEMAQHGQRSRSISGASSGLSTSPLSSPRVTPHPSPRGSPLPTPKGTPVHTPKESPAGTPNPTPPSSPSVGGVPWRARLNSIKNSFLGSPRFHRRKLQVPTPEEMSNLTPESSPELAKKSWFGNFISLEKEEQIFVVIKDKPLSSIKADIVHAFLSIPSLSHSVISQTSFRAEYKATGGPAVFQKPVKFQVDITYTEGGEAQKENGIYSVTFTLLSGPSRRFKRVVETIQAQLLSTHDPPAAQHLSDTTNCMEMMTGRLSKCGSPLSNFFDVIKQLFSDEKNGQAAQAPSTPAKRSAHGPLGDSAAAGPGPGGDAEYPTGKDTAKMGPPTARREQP

PIP5K1C = target: T15, PIP5K1C (Homo sapiens, UniProt O60331)
T15 construct: DNA label (qPCR read-out); purchased KINOMEscan (DiscoveRx) panel
T15 sequence (O60331 whole entry): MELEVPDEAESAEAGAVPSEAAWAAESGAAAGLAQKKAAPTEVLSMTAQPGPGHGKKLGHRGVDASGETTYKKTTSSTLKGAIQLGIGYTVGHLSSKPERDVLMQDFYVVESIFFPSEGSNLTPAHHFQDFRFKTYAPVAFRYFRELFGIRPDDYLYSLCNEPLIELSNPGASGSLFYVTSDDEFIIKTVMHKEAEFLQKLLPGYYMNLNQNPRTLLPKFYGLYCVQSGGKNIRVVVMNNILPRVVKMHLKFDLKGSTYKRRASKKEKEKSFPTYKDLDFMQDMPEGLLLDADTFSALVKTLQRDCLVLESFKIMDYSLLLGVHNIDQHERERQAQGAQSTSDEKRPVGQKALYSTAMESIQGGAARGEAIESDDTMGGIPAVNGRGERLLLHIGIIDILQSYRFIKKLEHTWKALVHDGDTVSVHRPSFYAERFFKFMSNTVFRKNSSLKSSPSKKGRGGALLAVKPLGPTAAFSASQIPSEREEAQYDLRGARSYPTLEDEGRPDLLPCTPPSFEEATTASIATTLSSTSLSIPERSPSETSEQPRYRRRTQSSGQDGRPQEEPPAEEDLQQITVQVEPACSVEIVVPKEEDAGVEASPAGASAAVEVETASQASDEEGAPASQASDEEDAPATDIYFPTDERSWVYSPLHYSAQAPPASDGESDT

TRKB = target: T16, TRKB (Homo sapiens, UniProt Q16620)
T16 construct: DNA label (qPCR read-out); purchased KINOMEscan (DiscoveRx) ScanMAX panel
T16 sequence (Q16620 32-822): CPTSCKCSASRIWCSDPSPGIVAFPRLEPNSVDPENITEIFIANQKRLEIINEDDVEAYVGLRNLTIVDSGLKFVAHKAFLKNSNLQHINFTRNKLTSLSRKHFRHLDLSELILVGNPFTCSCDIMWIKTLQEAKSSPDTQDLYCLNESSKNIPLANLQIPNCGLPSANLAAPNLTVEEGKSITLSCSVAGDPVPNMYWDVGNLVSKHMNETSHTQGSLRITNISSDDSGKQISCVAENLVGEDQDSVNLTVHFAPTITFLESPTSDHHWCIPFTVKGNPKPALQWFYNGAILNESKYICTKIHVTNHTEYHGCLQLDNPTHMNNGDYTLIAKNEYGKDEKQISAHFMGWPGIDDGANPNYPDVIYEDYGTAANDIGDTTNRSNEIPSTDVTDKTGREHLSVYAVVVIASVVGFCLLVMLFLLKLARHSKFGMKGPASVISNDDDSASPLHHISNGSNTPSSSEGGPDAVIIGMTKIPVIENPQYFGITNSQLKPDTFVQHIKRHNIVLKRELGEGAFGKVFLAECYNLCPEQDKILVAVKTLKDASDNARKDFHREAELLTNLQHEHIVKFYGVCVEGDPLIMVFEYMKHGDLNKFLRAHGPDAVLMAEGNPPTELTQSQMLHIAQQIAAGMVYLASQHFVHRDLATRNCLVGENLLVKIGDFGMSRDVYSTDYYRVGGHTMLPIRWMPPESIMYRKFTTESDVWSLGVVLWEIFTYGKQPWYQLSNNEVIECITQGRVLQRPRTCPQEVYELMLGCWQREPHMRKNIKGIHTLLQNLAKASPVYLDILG

ALK = target: T17, ALK (Homo sapiens, UniProt Q9UM73)
T17 construct: purchased DiscoveRx (KINOMEscan scanMAX panel, service)

PHKG1 = target: T18, PHKG1 (Homo sapiens, UniProt Q16816)
T18 construct: DNA label (for qPCR read-out); purchased DiscoveRx (KINOMEscan scanMAX service)

NEK2 = target: T19, NEK2 (Homo sapiens, UniProt P51955)
T19 construct: DNA label (qPCR read-out); purchased KINOMEscan (ScanMAX panel service)
T19 sequence (P51955 whole entry): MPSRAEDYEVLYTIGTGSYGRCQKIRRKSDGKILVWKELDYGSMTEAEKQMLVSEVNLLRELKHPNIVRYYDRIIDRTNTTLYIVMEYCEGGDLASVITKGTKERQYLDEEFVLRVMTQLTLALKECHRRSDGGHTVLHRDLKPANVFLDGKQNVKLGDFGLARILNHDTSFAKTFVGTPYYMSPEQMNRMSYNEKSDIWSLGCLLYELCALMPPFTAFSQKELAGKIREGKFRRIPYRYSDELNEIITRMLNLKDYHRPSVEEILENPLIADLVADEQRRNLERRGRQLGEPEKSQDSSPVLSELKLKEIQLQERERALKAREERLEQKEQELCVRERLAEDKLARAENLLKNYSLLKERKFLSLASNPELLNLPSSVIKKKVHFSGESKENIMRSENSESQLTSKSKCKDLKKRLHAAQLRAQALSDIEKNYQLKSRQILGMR

[1] = target: T20, RSK1(Kin.Dom.2-C-terminal) (Homo sapiens, UniProt Q15418)
T20 construct: RSK1(Kin.Dom.2); purchased DiscoveRx (KINOMEscan scanMAX panel)
T20 sequence (Q15418 418-675 limits assumed): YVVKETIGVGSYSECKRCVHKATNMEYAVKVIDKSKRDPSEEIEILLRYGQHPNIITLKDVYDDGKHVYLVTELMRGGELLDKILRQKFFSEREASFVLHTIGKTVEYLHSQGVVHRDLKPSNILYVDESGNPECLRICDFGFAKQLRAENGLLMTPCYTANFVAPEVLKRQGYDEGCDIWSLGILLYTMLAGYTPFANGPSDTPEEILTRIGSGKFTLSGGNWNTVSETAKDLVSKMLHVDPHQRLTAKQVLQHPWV

PIK3C2B = target: T21, PIK3C2B (Homo sapiens, UniProt O00750)
T21 construct: DNA label (for qPCR read-out); purchased DiscoveRx (KINOMEscan scanMAX service)

[2] = target: ABL1(M351T)-phosphorylated (Homo sapiens, UniProt P00519, M351T)
PLK2 = target: T22, PLK2 (Homo sapiens, UniProt Q9NYY3)
T22 construct: purchased DiscoveRx (KINOMEscan scanMAX panel)

[3] = target: T23, TYK2(JH2domain-pseudokinase) (Homo sapiens, UniProt P29597)
T23 construct: JH2domain; DNA label (for qPCR read-out); purchased DiscoveRx (KINOMEscan scanMAX panel)

LKB1 = target: T24, LKB1 (Homo sapiens, UniProt Q15831)
T24 construct: purchased KINOMEscan (DiscoveRx) panel service

PFPK5(P.falciparum) = target: T25, PFPK5(P.falciparum) (Plasmodium falciparum, UniProt P61075)
T25 construct: DNA label (for qPCR read-out); purchased DiscoveRx (KINOMEscan scanMAX service)
T25 sequence (P61075 whole entry): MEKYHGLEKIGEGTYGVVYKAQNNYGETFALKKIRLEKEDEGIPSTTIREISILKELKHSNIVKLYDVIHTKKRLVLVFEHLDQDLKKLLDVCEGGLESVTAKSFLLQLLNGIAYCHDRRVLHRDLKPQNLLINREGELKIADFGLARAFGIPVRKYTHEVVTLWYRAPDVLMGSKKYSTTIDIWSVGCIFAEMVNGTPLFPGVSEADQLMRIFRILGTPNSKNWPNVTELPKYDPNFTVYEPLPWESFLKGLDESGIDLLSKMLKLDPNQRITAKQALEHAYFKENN
Excerpt: (§1) Nat. Biotechnol. 23, 329-336 (2005).
(§2) Percent Control (% Ctrl).

PRP4 = target: T26, PRP4 (Homo sapiens, UniProt Q13523)
T26 construct: purchased DiscoveRx (KINOMEscan scanMAX panel)
Excerpt: as §1, §2

FLT3(ITD, D835V) = test system: FLT3(ITD, D835V)
Excerpt: as §1, §2

CDC2L5 = target: T27, CDC2L5 (Homo sapiens, UniProt Q14004)
T27 construct: purchased DiscoverX (KINOMEscan service)
Excerpt: as §1, §2

FLT3(ITD, F691L) = test system: FLT3(ITD, F691L)
Excerpt: as §1, §2

PFCDPK1(P.falciparum) = target: T28, PFCDPK1(P.falciparum) (Plasmodium falciparum, UniProt P62344)
T28 construct: DNA label (for qPCR read-out); purchased DiscoveRx (KINOMEscan scanMAX service)
Excerpt: as §1, §2

FLT3 (ITD) = test system: FLT3 (ITD)
Excerpt: as §1, §2

ASK2 = target: T29, ASK2 (Homo sapiens, UniProt O95382)
T29 construct: DNA label (qPCR read-out); purchased KINOMEscan scanMAX panel (DiscoveRx)

Row | Compound | % Ctrl (MAP4K5) [% Ctrl] | % Ctrl (EPHA7) [% Ctrl] | % Ctrl (YANK1) [% Ctrl] | % Ctrl (TAOK2) [% Ctrl] | % Ctrl (p38-alpha) [% Ctrl] | % Ctrl (AMPK-alpha2) [% Ctrl] | % Ctrl (MLK3) [% Ctrl] | % Ctrl (KIT(L576P)) [% Ctrl] | % Ctrl (MAP3K3) [% Ctrl] | % Ctrl (KIT(V559D)) [% Ctrl] | % Ctrl (INSR) [% Ctrl] | % Ctrl (SBK1) [% Ctrl] | % Ctrl (DMPK) [% Ctrl] | % Ctrl (HIPK1) [% Ctrl] | % Ctrl (ERBB3) [% Ctrl] | % Ctrl (BRSK2) [% Ctrl] | % Ctrl (PIP5K1C) [% Ctrl] | % Ctrl (TRKB) [% Ctrl] | % Ctrl (ALK) [% Ctrl] | % Ctrl (PHKG1) [% Ctrl] | other results
1 | [2H]C([2H])([2H])N(C(=O)c1ccc(N2CCCN(c3ccnc4sc(C(N)=O)c(N)c34)CC2)cc1)C([2H])([2H])[2H] [15u_D6, 3-amino-4-(4-(4-(bis(methyl-d3)carbamoyl)phenyl)-1,4-diazepan-1-yl)thieno[2,3-b]pyridine-2-carboxamide] | 97 | 81 | 97 | 93 | 99 | 95 | 100 | 75 | 72 | 91 | 80 | 83 | 97 | 71 | 88 | 100 | 25 | 78 | 78 | 97 | % Ctrl (NEK2): 95 % Ctrl; % Ctrl [1]: 86 % Ctrl; % Ctrl (PIK3C2B): 87 % Ctrl; % Ctrl [2]: 77 % Ctrl; % Ctrl (PLK2): 86 % Ctrl; % Ctrl [3]: 59 % Ctrl; % Ctrl (LKB1): 87 % Ctrl; % Ctrl (PFPK5(P.falciparum)): 67 % Ctrl; % Ctrl (PRP4): 88 % Ctrl; % Ctrl (FLT3(ITD, D835V)): 34 % Ctrl; % Ctrl (CDC2L5): 80 % Ctrl; % Ctrl (FLT3(ITD, F691L)): 75 % Ctrl; % Ctrl (PFCDPK1(P.falciparum)): 61 % Ctrl; % Ctrl (FLT3 (ITD)): 72 % Ctrl; % Ctrl (ASK2): 88 % Ctrl
2 | CN(C)C(=O)c1ccc(N2CCCN(c3ccnc4sc(C(N)=O)c(N)c34)CC2)cc1 [15u, 3-amino-4-(4-(4-(dimethylcarbamoyl)phenyl)-1,4-diazepan-1-yl)thieno[2,3-b]pyridine-2-carboxamide] | 100 | 92 | 89 | 92 | 93 | 80 | 99 | 96 | 100 | 98 | 97 | 100 | 97 | 86 | 100 | 100 | 64 | 88 | 81 | 94 | % Ctrl (NEK2): 95 % Ctrl; % Ctrl [1]: 100 % Ctrl; % Ctrl (PIK3C2B): 89 % Ctrl; % Ctrl [2]: 100 % Ctrl; % Ctrl (PLK2): 100 % Ctrl; % Ctrl [3]: 73 % Ctrl; % Ctrl (LKB1): 100 % Ctrl; % Ctrl (PFPK5(P.falciparum)): 68 % Ctrl; % Ctrl (PRP4): 100 % Ctrl; % Ctrl (FLT3(ITD, D835V)): 41 % Ctrl; % Ctrl (CDC2L5): 71 % Ctrl; % Ctrl (FLT3(ITD, F691L)): 95 % Ctrl; % Ctrl (PFCDPK1(P.falciparum)): 94 % Ctrl; % Ctrl (FLT3 (ITD)): 82 % Ctrl; % Ctrl (ASK2): 90 % Ctrl
